Test results published in publication PMC7897990, “TriTOX: A novel Trichomonas vaginalis assay platform for high-throughput screening of compound libraries” (International Journal for Parasitology: Drugs and Drug …, 2021).
Where two headings read alike, the source gives them in different places. Non-standard residues stand in square brackets, D forms with d. Residues, ends and D or L forms follow the SMILES beside them. GABA = NCCCC(=O)O

Test system: Trichomonas vaginalis G3 trophozoites
Settings: for T.vaginalis_Absorbance_Rep1: replicate 1, raw absorbance; for T.vaginalis_Absorbance_Rep2: replicate 2, raw absorbance
[1] = HTS, parasite screen at 1 µg/mL, replicate 1
[2] = HTS, parasite screen at 1 µg/mL
[3] = HTS, parasite screen at 1 µg/mL, replicate 2
[4] = HTS replicate 1, parasite screen 1 µg/mL
[5] = HTS replicate 2, parasite screen 1 µg/mL

Compound | T. vaginalis HTS result in words (384-well, 25 μL, 10,000 cells/mL, 48 h, biological duplicates, hit = >50% inhibition) | T.vaginalis_%inb_Rep1 [1] | T.vaginalis_Absorbance_Rep1 [2] | T.vaginalis_%inb_Rep2 [3] | T.vaginalis_Absorbance_Rep2 [2] | T.vaginalis_%inb_Rep1 [4] | T.vaginalis_%inb_Rep2 [5]
CN[C@@H]1C[C@H]2O[C@@](C)([C@@H]1OC)n1c3ccccc3c3c4c(c5c6ccccc6n2c5c31)C(=O)NC4=O [7-oxostaurosporine, reference compound] | active analogues | – | – | – | – | – | –
CC1=CCCC(C)C(O)C(C)C(O)CCC=CC(C)C(O)C=CC(C)C(O)C(C)=CC(O[C@H]2O[C@H](CO)[C@@H](O)[C@H](O)[C@@H]2O)C(O)CC(O)CC(O)CC(O)C(C)C(O)C(C)C(O)CC(O)CC(O)C=CCC(C(C)C(O)CCCN)OC1=O (stereo partly drawn) [Desertomycin A] | – | 12.39% | 0.939 | 12.87% | 0.798 | – | –
CCCC[C@H](O)[C@@H]1CC(OC)=CC(=O)O1 [Pestalotin] | – | – | – | – | – | 11.05% | 11.16%
CCC(O)C(C)(O)C1OC(=O)C(C)C(OC2CC(C)(OC)C(O)C(C)O2)C(C)C(OC2OC(C)CC(N(C)C)C2O)C2(C)CC(C)=C(O2)C1C (stereo not drawn) [Pseudoerythromycin A enol ether] | – | – | – | – | – | 13.84% | 5.58%
COCC(=O)N[C@@H](C(=O)N1NCCC[C@H]1C(=O)N[C@@H](Cc1ccccc1)[C@@H](O)[C@H](C)C(=O)N[C@H]1CCN(C(N)=O)C1=O)[C@H](O)C(C)C [Padanamide A] | – | – | – | – | – | 15.72% | 10.52%
CC(=O)c1c(O)c(C(C)=O)c(O)c(C(C)=O)c1O [Triacetylphloroglucinol] | – | 10.38% | – | 10.12% | – | – | –
Enniatin A1 | – | – | 0.98 | – | 0.8 | – | –
COC1=C(OC)C(O)C(C)C(C)C1=O (stereo not drawn) [Glioroseinol] | – | 11.16% | 0.922 | 1.92% | 0.665 | – | –
CCC/C=C/C=C/C1C[C@@H](O)[C@@H](O)C(=O)[C@H]1C=O (stereo partly drawn) [Frequentin] | – | 13.62% | 0.962 | 7.74% | 0.727 | – | –
CC(C)C[C@@H]1NC(=O)[C@@H](C(C)C)NC(=O)[C@@H](C)NC(=O)CCCNC(=O)[C@@H](Cc2c[nH]c3ccccc23)NC(=O)[C@@H](C)NC(=O)[C@@H](C(C)C)NC1=O [Unguisin B] (cyclo([GABA][dA][dV]L[dV][dA][dW])) | – | 10.17% | – | 14.69% | – | – | –
Cc1ccc2c(c1O)C(=O)c1c(cc(O)c(C(=O)O)c1C)[C@]2(C)OO[C@@]1(C)c2cc(O)c(C(=O)O)c(C)c2C(=O)c2c1ccc(C)c2O [Oxanthromicin, (+)] | – | – | – | – | – | 15.31% | 5.45%
COC1=C(OC)C(=O)C(C)=CC1=O [Fumigatin methylether] | – | 13.18% | 0.962 | 9.62% | 0.785 | – | –
COc1c2c(cc3c1c(=O)c1ccccc1n3C)OCO2 [Evoxanthine] | – | 15.29% | 0.993 | 5.42% | 0.695 | – | –
Milbemycin oxime | – | – | – | – | – | 12.53% | 12.96%
C=C1CC[C@H]2C(C)(C)CCC[C@]2(C)[C@H]1C[C@@]12C[C@H]3C(=O)N4CCC=C4C(=O)N3[C@@H]1Nc1ccccc12 [Drimentine B] | – | 15.40% | 0.995 | 15.26% | 0.831 | – | –
CCCN1C[C@H](C)[C@@H](O)[C@](C)(O)[C@@H](CC)OC(=O)[C@H](C)[C@@H](O[C@H]2C[C@@](C)(OC)[C@@H](O)[C@H](C)O2)[C@H](C)[C@@H](O[C@@H]2O[C@H](C)C[C@H](N(C)C)[C@H]2O)[C@](C)(O)C[C@H]1C [Gamithromycin] | – | 5.73% | 0.815 | 7.95% | 0.759 | – | –
